# Where two headings read alike, the source gives them in different places.
# How the values were obtained:
# [1] = test system: Male Brown Norway Rats; settings: rat, in vivo, ip, 2 days
# [2] = cited from earlier work
structure (smiles),measurement,setting,value
CC12C[C@H](O)[C@@]3(F)C(CCC4=CC(=O)CCC43C)C1CC[C@]2(O)C(=O)CSc1nc2ccccc2s1 (stereo partly drawn) [Inventive Compound B],% Thymus Involution,[1]; 30 mg/kg,10 ± 4%
CC12CCC(=O)C=C1CCC1C2[C@@H](O)CC2(C)C1CC[C@]2(O)C(=O)CSc1nc2ccccc2s1 (stereo partly drawn) [Inventive Compound A],% Thymus Involution,[1]; 30 mg/kg,−4 ± 7%
Oc1cccc(Nc2ncc(F)c(Nc3cccc(O)c3)n2)c1 [Example R112],improvement from baseline measurements of symptoms associated with chronic nasal congestion,[2]; from baseline (prior to drug initiation),up to 38%
same,"absolute difference over placebo, symptoms associated with chronic nasal congestion","[2]; versus placebo, absolute",9%
same,"relative improvement over placebo, symptoms associated with chronic nasal congestion","[2]; versus placebo, relative",greater than 20%
C[C@@H]1CC2C3CCC4=CC(=O)C=CC4(C)[C@@]3(F)[C@@H](O)CC2(C)[C@@]1(O)C(=O)CSc1nc2ccccc2s1 (stereo partly drawn) [US′120],% Thymus Involution,[1]; 10 mg/kg,62 ± 3%
